Target: T1, RIPK1 kinase domain (Homo sapiens, UniProt Q13546)
T1 construct: purchased DiscoverX
T1 sequence (Q13546 17-289 limits assumed): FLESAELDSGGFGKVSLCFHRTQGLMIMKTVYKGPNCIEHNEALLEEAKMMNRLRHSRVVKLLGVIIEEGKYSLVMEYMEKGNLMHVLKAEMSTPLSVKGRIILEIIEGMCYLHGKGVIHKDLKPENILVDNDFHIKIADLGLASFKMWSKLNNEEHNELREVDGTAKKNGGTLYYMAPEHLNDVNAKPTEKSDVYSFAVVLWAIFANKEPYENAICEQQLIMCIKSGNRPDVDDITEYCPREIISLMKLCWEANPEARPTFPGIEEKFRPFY
Experiment: ATP-competitive probe displacement assay, RIPK1
Assay type: binding
Conditions: average of duplicates
Method: Compound binding constants (KDs) were determined at DiscoverX using their KINOMEscan assay platform. This competition binding assay was previously described in Karaman et al. (2008)[18]. Briefly, full length MLKL was expressed in HEK-293 cells as a fusion with an NFκB DNA binding domain and subsequently tagged with a qPCR detection amplicon via interaction with NFκB. […] Twenty microliters of binding reactions were carried out in 384-well polypropylene plates for 1 hour at room temperature. Beads were subsequently washed and resuspended in elution buffer for 30 minutes at room temperature with shaking. The concentration of MLKL in the eluates was measured by qPCR and compound binding constants were calculated using a standard dose-response curve.
A similar approach was used to measure binding affinities for RIPK1 and RIPK3 kinase domains.

## Nc1nccnc1C(=O)O[C@@H](C(=O)Nc1ccc(F)cc1)c1ccccc1 [cpd 4, 3-Amino-pyrazine-2-carboxylic acid (R)-(4-fluorophenylcarbamoyl)-phenyl-methyl ester]
  Kd: > 30 µM

From article PMC5104457, “ATP-Competitive MLKL Binders Have No Functional Impact on Necroptosis” (PLoS ONE, 2016)
